Data set [1] can be described thus: Calcein leakage assay, fungal membrane mimic. Particulars: 4 μM; Tris buffer pH 7.4; fluorescence 10 min after addition; 100% = Triton X-100; three independent experiments. How it is done:
These experiments were performed as previously described ([34]). Briefly, phospholipid vesicles were prepared from POPC: POPE (at a ratio of 1:4), POPC/POPE/Erg (at a ratio of 5:4:3), and POPC with 40% cholesterol, which mimics the cell membranes of bacterial, fungal, and mammalian cells, respectively. The resulting lipid film was suspended in Tris buffer (20 mM Tris, 100 mM NaCl, and 40 mM calcein, pH 7.4). Extravehicular buffer containing lipid vesicles with entrapped calcein was read in a fluorimeter using excitation at 490 nm and emission at 520 nm. […] The 10% Triton X-100 was used to disrupt lipid vesicles for obtaining the maximum fluorescence intensity.

Data set [2] deals with C. neoformans H99 cells. The data set can be described thus: JC-10 mitochondrial membrane potential assay. It counts as cell-based, Cryptococcus neoformans. The conditions noted are these: 8 μM, 37°C, 2 h; JC-10, flow cytometry; three experiments. How it is done: (§1) H99 cells were cultured in RPMI 1640 medium (Sigma, Shanghai) with 0.165 M MOPS (Sigma, Shanghai) overnight and diluted in fresh medium to an OD600 of 1. For the Annexin V-PI assay, the yeast protoplast preparation kit (BestBio, Shanghai) was used to prepare the protoplasts. […] The TUNEL assay was performed by using the Apoptosis Detection Kit (Yeasen, Shanghai) according to the manufacturer’s instructions. For JC-10 staining, H99 cells were stained by 30 μM JC-10 (Yeasen, Shanghai) and 0.02% Pluronic F-127(Beyotime, Shanghai) at 37°C for 30 min. The intracellular ROS was stained by the incubation with 5 μM H2DCFDA(MCE, Shanghai) at 37°C for 30 min. The stained samples were measured by BD FACSCalibur as described ([58]). The data were analyzed by FlowjoX. All experiments were repeated three times independently.

In data set [3] the test system is C. neoformans protoplasts. The data set can be described thus: Protoplast rupture experiment (microscopy). It counts as cell-based, Cryptococcus neoformans. Particulars: 2.5 μM, 2 h; three experiments. An excerpt: Many antimicrobial peptides form pores in cell membranes to kill cells ([38]). […] To test this hypothesis, C. neoformans protoplasts were adopted for cell rupture experiments. Because the cell walls were digested with enzymes, the unprotected protoplasts could be easily ruptured following peptide-induced pore formation within the cell membrane. Moreover, without the structural support of a cell wall, cell rupture could be clearly observed under the microscope.

Data set [4] has as its system C. neoformans H99 protoplasts. The data set can be described thus: Annexin V staining (phosphatidylserine exposure), flow cytometry. It counts as cell-based, Cryptococcus neoformans. Particulars: 2.5 μM, 1 h; three independent experiments. How it is done: as §1
In another data set the test system is Cryptococcus neoformans. The data set can be described thus: organism not typed. The conditions noted are these: 37°C, 72 h, three independent experiments. How it is done: (§2) The MIC of the peptide was determined using a standardized micro-broth dilution method with a panel of pathogenic yeast strains (C. albicans, […], C. neoformans, and C. gattii) and bacterial strains (Escherichia coli, Micrococcus luteus, Staphylococcus aureus, and Pseudomonas aeruginosa).
(§3) The value of the MIC was defined as the lowest concentration of drugs showing no yeast growth. The MIC was determined by three independent repeats, each repeat in quintuplicate.

The test system of data set [5] is C. neoformans H99 cells. Kind of data set: Time-killing experiment (killing kinetics). Format: cell-based, Cryptococcus neoformans. Particulars: 2.5 μM (MIC of melittin), over 4 h, 37°C, RPMI 1640, CFU counting; three independent experiments.
Description: The time-killing experiment was performed as described ([17]). C. neoformans H99 cells were cultured in RPMI 1640 medium overnight, and the concentration was adjusted to 3 × 10^7 colony-forming units (CFU)/mL. […] Aliquots were taken out to wash and serially diluted 1:10 in RPMI 1640 medium to final concentration of nearly 300 CFU/mL, and plate on the YPD medium at the corresponding time points. After incubating at 37°C for 48 h, colonies were counted to calculate the survival rate. The percentage of CFU of growth control was set as 100%. The percentage of recovering CFU on plates was plotted against time. The data were obtained from three independent experiments.
The subject of data set [6] is C. neoformans H99 protoplasts. Kind of data set: PI staining of protoplasts, flow cytometry. It counts as cell-based, Cryptococcus neoformans. Particulars: 2.5 μM, 1 h; around 30,000 protoplasts per treatment; three independent experiments. How it is done:
as §1

In a further data set the test system is Aspergillus fumigatus. The data set can be described thus: MIC, micro-broth dilution (CLSI M27-A4). Particulars: Aspergillus fumigatus (YJ407), laboratory stock; three independent experiments. It counts as cell-based. How it is done:
as §2, §3

The test system of data set [7] is ergosterol in the cell membrane of C. neoformans (H99) cells. Kind of data set: Filipin III staining of membrane ergosterol. Particulars: 1 h. Format: cell-based, Cryptococcus neoformans. An excerpt: All fluorescent images were collected with the confocal microscope (Olympus IX81) at a magnification of ×100 (oil immersion). […] Images were taken using the same confocal microscope described above. […] The fluorescent images of mitochondria were acquired on the confocal microscope (Leica SP8). At least 200 cells per sample were categorized based on their tubular or fragmented mitochondria morphologies. To quantify the fluorescent staining of ergosterol by filipin III, H99 cells with different treatment were stained by filipin III as described ([37]). The fluorescent images were acquired by the IX81 confocal microscope described above. The ImageJ was used to measure the mean fluorescent intensity. The statistical analysis of fluorescent intensity was based on three independent experiments. In each experiment, at least 100 cells were counted in three different visual fields.

The mark [8] stands for this setting: strain JEC21, RPMI 1640 + 0.165 M MOPS, lowest concentration showing no yeast growth.
Where [9] appears, read: Cryptococcus neoformans, fzc9Δ, FLC-resistant strain derived from H99, RPMI 1640 + 0.165 M MOPS.
Setting [10] is: Cryptococcus neoformans, gat5Δ, FLC-resistant strain derived from H99, RPMI 1640 + 0.165 M MOPS.
[11] abbreviates: Cryptococcus neoformans, liv4Δ, FLC-resistant strain derived from H99, RPMI 1640 + 0.165 M MOPS.

Where “and” joins values, the source holds several entries; their conditions need not be identical. Equal entries are not always repeated.

As for “IRIAINGFGRIGRPPPRPPPQRKDIEVVA [control peptide]”, in data set [1], the calcein leakage entry is given as “did not induce calcein leakage”. Further, the “cells that lost their mitochondrial membrane potential” value in the data set on C. neoformans H99 cells [2] is recorded as roughly 5%.
With `CC[C@H](C)[C@H](NC(=O)CN)C(=O)NCC(=O)N[C@@H](C)C(=O)N[C@H](C(=O)N[C@@H](CC(C)C)C(=O)N[C@@H](CCCCN)C(=O)N[C@H](C(=O)N[C@@H](CC(C)C)C(=O)N[C@H](C(=O)N[C@H](C(=O)NCC(=O)N[C@@H](CC(C)C)C(=O)N1CCC[C@H]1C(=O)N[C@@H](C)C(=O)N[C@@H](CC(C)C)C(=O)N[C@H](C(=O)N[C@@H](CO)C(=O)N[C@@H](Cc1c[nH]c2ccccc12)C(=O)N[C@H](C(=O)N[C@@H](CCCCN)C(=O)N[C@@H](CCCNC(=N)N)C(=O)N[C@@H](CCCCN)C(=O)N[C@@H](CCCNC(=N)N)C(=O)N[C@@H](CCC(N)=O)C(=O)N[C@@H](CCC(N)=O)C(N)=O)[C@@H](C)CC)[C@@H](C)CC)[C@@H](C)O)[C@@H](C)O)C(C)C)C(C)C` [melittin], in [3], the protoplasts ruptured is roughly 80%. In addition, the “phosphatidylserine exposure (annexin V)” value in data set [4] is “almost no phosphatidylserine exposure”. Further, in the data set with Cryptococcus neoformans (strain H99, RPMI 1640 + 0.165 M MOPS), the MIC is 2.5 μM and 7.12 μg/mL. For the same compound, the cells killed in the data set on C. neoformans H99 cells [5] is given as roughly 70%. The same compound came in with a PI-positive protoplasts in data set [6] of roughly 70%.
As for `OC(Cn1cncn1)(Cn1cncn1)c1ccc(F)cc1F` [FLC, fluconazole], the calcein leakage entry in [1] was “did not induce calcein leakage”. Also, the MIC with Cryptococcus neoformans (setting [8]) is 6.5 µM; in the data set with Cryptococcus neoformans (setting [9]), greater than 26 µM; with Cryptococcus neoformans (setting [10]) it was greater than 26 µM; with Cryptococcus neoformans (setting [11]) it was greater than 26 µM; in the data set with Cryptococcus neoformans (fzc9Δ, FLC-resistant strain derived from H99, RPMI 1640 + 0.165 M MOPS) it was greater than 8 µg/mL; in the data set on Cryptococcus neoformans (gat5Δ, FLC-resistant strain derived from H99, RPMI 1640 + 0.165 M MOPS), greater than 8 µg/mL. For the same compound, in the data set with Cryptococcus neoformans (liv4Δ, FLC-resistant strain derived from H99, RPMI 1640 + 0.165 M MOPS), the MIC was greater than 8 µg/mL.
On to `C[C@@H]1[C@H](O)[C@@H](C)/C=C/C=C/C=C/C=C/C=C/C=C/C=C/[C@H](O[C@@H]2O[C@H](C)[C@@H](O)[C@H](N)[C@@H]2O)C[C@@H]2O[C@](O)(C[C@@H](O)C[C@@H](O)[C@H](O)CC[C@@H](O)C[C@@H](O)CC(=O)O[C@H]1C)C[C@H](O)[C@H]2C(=O)O` [AmB, amphotericin B], for which the MIC against Aspergillus fumigatus was 0.4 µM and 0.37 µg/mL; in the data set on Cryptococcus neoformans (setting [8]), 0.4 µM; in the data set with Cryptococcus neoformans (Cryptococcus neoformans, atf1Δ, AmB-resistant strain derived from H99, RPMI 1640 + 0.165 M MOPS), greater than 2.2 µM; in the data set on Cryptococcus neoformans (setting [9]), 1.1 µM and 1 µg/mL; in the data set on Cryptococcus neoformans (Cryptococcus neoformans, fzc51Δ, AmB-resistant strain derived from H99, RPMI 1640 + 0.165 M MOPS), > 2.2 µM and > 2 µg/mL; in the data set with Cryptococcus neoformans (setting [10]), 1.1 µM and 1 µg/mL. Also, the MIC in the data set on Cryptococcus neoformans (setting [11]) was 1.1 µM and 1 µg/mL; with Cryptococcus neoformans (Cryptococcus neoformans, strain H99, RPMI 1640 + 0.165 M MOPS) it was 1.1 µM and 1 µg/mL; with Cryptococcus neoformans (atf1Δ, AmB-resistant strain derived from H99, RPMI 1640 + 0.165 M MOPS), greater than 2 µg/mL. In addition, the “filipin III signal” value in data set [7] (1.1 μM) is given as “a decreased level of filipin III signal”.
Turning to `C[C@@H]1C/C=C/C=C/C=C/C=C/[C@H](O[C@@H]2O[C@H](C)[C@@H](O)[C@H](N)[C@@H]2O)C[C@@H]2O[C@](O)(C[C@@H](O)C[C@H]3O[C@@H]3/C=C/C(=O)O1)C[C@H](O)[C@H]2C(=O)O` [natamycin], the “filipin III signal” value in data set [7] (15 μM) was “a decreased level of filipin III signal”.

The values are drawn from PMC8754130, “A Peptide from Budding Yeast GAPDH Serves as a Promising Antifungal against Cryptococcus neoformans” (Microbiology Spectrum, 2022).
